Assay results from the NIST ThermoML archive (doi:10.1007/s10765-011-1052-5).
Values joined by “and” are separate entries in the source; they are usually repeats but may differ in a detail not shown here. Equal entries are not always repeated.

Conditions: Fluid (supercritical or subcritical phases), Hot wire method

[He] [helium]
Conditions | thermal conductivity
323.19 K, 5030 kPa | 0.1676 W/m/K
323.19 K, 10055 kPa | 0.1696 W/m/K and 0.1695 W/m/K and 0.1694 W/m/K
323.19 K, 29885 kPa | 0.1784 W/m/K and 0.1786 W/m/K
323.19 K, 29886 kPa | 0.1782 W/m/K
323.19 K, 29887 kPa | 0.1783 W/m/K
323.2 K, 5030 kPa | 0.1674 W/m/K and 0.1675 W/m/K and 0.1677 W/m/K
323.21 K, 50067 kPa | 0.187 W/m/K
323.21 K, 50070 kPa | 0.1872 W/m/K
323.21 K, 50072 kPa | 0.1872 W/m/K
323.21 K, 50075 kPa | 0.187 W/m/K
323.21 K, 70102 kPa | 0.196 W/m/K
323.21 K, 70105 kPa | 0.196 W/m/K
323.21 K, 70109 kPa | 0.1961 W/m/K
323.21 K, 70112 kPa | 0.1964 W/m/K
323.21 K, 98251 kPa | 0.2089 W/m/K
323.21 K, 98254 kPa | 0.2085 W/m/K
323.21 K, 98259 kPa | 0.2085 W/m/K
323.21 K, 98263 kPa | 0.2086 W/m/K
373.22 K, 5137 kPa | 0.1853 W/m/K
373.22 K, 30213 kPa | 0.1948 W/m/K
373.22 K, 30214 kPa | 0.1948 W/m/K and 0.1945 W/m/K
373.22 K, 49990 kPa | 0.2028 W/m/K
373.22 K, 49992 kPa | 0.2028 W/m/K
373.22 K, 49994 kPa | 0.2033 W/m/K
373.23 K, 5137 kPa | 0.185 W/m/K and 0.1845 W/m/K
373.23 K, 10114 kPa | 0.1866 W/m/K and 0.1868 W/m/K
373.23 K, 69936 kPa | 0.2139 W/m/K and 0.2138 W/m/K
373.23 K, 69937 kPa | 0.214 W/m/K
373.23 K, 97514 kPa | 0.2284 W/m/K
373.23 K, 97516 kPa | 0.2277 W/m/K
373.23 K, 97527 kPa | 0.2275 W/m/K
473.27 K, 5260 kPa | 0.2166 W/m/K
473.27 K, 5261 kPa | 0.2169 W/m/K
473.27 K, 10172 kPa | 0.2187 W/m/K and 0.2183 W/m/K
473.27 K, 10173 kPa | 0.2193 W/m/K
473.27 K, 50076 kPa | 0.2321 W/m/K
473.27 K, 50078 kPa | 0.2322 W/m/K
473.27 K, 50080 kPa | 0.2317 W/m/K
473.27 K, 70131 kPa | 0.2428 W/m/K
473.27 K, 70135 kPa | 0.2422 W/m/K
473.27 K, 70138 kPa | 0.2419 W/m/K
473.27 K, 99148 kPa | 0.2558 W/m/K
473.27 K, 99151 kPa | 0.2549 W/m/K
473.27 K, 99156 kPa | 0.2552 W/m/K
473.28 K, 5261 kPa | 0.2173 W/m/K
473.28 K, 30084 kPa | 0.2252 W/m/K
473.28 K, 30085 kPa | 0.2251 W/m/K and 0.226 W/m/K
473.29 K, 99160 kPa | 0.2472 W/m/K
573.24 K, 30146 kPa | 0.2549 W/m/K
573.24 K, 50100 kPa | 0.2618 W/m/K
573.24 K, 70129 kPa | 0.2675 W/m/K
573.24 K, 97066 kPa | 0.2798 W/m/K
573.24 K, 97071 kPa | 0.2805 W/m/K
573.24 K, 97072 kPa | 0.2792 W/m/K
573.25 K, 5197 kPa | 0.2478 W/m/K
573.25 K, 5199 kPa | 0.2472 W/m/K
573.25 K, 5200 kPa | 0.2477 W/m/K
573.25 K, 10292 kPa | 0.2503 W/m/K
573.25 K, 10294 kPa | 0.2496 W/m/K
573.25 K, 10295 kPa | 0.2496 W/m/K
573.25 K, 30146 kPa | 0.2552 W/m/K
573.25 K, 30149 kPa | 0.2558 W/m/K
573.25 K, 50095 kPa | 0.2609 W/m/K
573.25 K, 50100 kPa | 0.2599 W/m/K
573.25 K, 70160 kPa | 0.268 W/m/K
573.25 K, 70165 kPa | 0.2662 W/m/K
672.87 K, 98224 kPa | 0.3057 W/m/K
672.87 K, 98230 kPa | 0.3055 W/m/K
672.87 K, 98231 kPa | 0.3054 W/m/K
672.88 K, 30064 kPa | 0.2852 W/m/K
672.88 K, 30085 kPa | 0.2823 W/m/K
672.88 K, 50184 kPa | 0.2882 W/m/K
672.88 K, 70068 kPa | 0.293 W/m/K
672.88 K, 70074 kPa | 0.2949 W/m/K
672.88 K, 70081 kPa | 0.2948 W/m/K
672.89 K, 5417 kPa | 0.2774 W/m/K
672.89 K, 10409 kPa | 0.2788 W/m/K
672.89 K, 10412 kPa | 0.279 W/m/K
672.89 K, 10414 kPa | 0.2784 W/m/K
672.89 K, 30054 kPa | 0.2843 W/m/K
672.89 K, 50178 kPa | 0.2895 W/m/K
672.89 K, 50182 kPa | 0.2888 W/m/K
672.9 K, 5413 kPa | 0.2765 W/m/K
672.9 K, 5416 kPa | 0.277 W/m/K
771.89 K, 50118 kPa | 0.3162 W/m/K
771.89 K, 50125 kPa | 0.3184 W/m/K
771.89 K, 50128 kPa | 0.3182 W/m/K
771.89 K, 70299 kPa | 0.3237 W/m/K
771.89 K, 70303 kPa | 0.3173 W/m/K
771.89 K, 70305 kPa | 0.3224 W/m/K
771.89 K, 99452 kPa | 0.3302 W/m/K
771.89 K, 99460 kPa | 0.3299 W/m/K
771.89 K, 99462 kPa | 0.3321 W/m/K
771.9 K, 30345 kPa | 0.3126 W/m/K
771.9 K, 30348 kPa | 0.3102 W/m/K
771.9 K, 30350 kPa | 0.313 W/m/K
771.91 K, 10197 kPa | 0.3094 W/m/K
771.91 K, 10199 kPa | 0.3093 W/m/K
771.92 K, 5204 kPa | 0.3065 W/m/K
771.93 K, 3005 kPa | 0.3046 W/m/K
771.93 K, 3008 kPa | 0.3049 W/m/K
771.93 K, 5202 kPa | 0.3079 W/m/K
771.94 K, 1059 kPa | 0.2998 W/m/K
771.94 K, 1068 kPa | 0.3028 W/m/K
771.94 K, 1071 kPa | 0.3022 W/m/K
771.94 K, 1074 kPa | 0.304 W/m/K
771.94 K, 3001 kPa | 0.3012 W/m/K
771.94 K, 3003 kPa | 0.3055 W/m/K
